Data taken from PMC7316778 (Nature Communications, 2020).
Where “and” joins values, the source holds several entries; their conditions need not be identical. Equal entries are not always repeated. Where two headings read alike, the source gives them in different places.

Key:
Assay in all cases: SelectScreen kinase assay
CDK13/cyclin K = CDK13/cyclin K (Homo sapiens, UniProt Q14004); type: biochemical
ACVRL1 (ALK1) = ACVRL1 (ALK1) (Homo sapiens, UniProt P37023)
Method: (§1) Selectivity profiling assays were performed by the Invitrogen SelectScreen™ Services. […] The concentration of ATP was selected to be equal to the KM, unless indicated otherwise.

CAMK2A (CaMKII alpha) = CAMK2A (CaMKII alpha) (Homo sapiens, UniProt Q9UQM7)
Method: as §1

EPHA3 = biological target: T1, EPHA3 (Homo sapiens, UniProt P29320)
T1 sequence (P29320 21-983): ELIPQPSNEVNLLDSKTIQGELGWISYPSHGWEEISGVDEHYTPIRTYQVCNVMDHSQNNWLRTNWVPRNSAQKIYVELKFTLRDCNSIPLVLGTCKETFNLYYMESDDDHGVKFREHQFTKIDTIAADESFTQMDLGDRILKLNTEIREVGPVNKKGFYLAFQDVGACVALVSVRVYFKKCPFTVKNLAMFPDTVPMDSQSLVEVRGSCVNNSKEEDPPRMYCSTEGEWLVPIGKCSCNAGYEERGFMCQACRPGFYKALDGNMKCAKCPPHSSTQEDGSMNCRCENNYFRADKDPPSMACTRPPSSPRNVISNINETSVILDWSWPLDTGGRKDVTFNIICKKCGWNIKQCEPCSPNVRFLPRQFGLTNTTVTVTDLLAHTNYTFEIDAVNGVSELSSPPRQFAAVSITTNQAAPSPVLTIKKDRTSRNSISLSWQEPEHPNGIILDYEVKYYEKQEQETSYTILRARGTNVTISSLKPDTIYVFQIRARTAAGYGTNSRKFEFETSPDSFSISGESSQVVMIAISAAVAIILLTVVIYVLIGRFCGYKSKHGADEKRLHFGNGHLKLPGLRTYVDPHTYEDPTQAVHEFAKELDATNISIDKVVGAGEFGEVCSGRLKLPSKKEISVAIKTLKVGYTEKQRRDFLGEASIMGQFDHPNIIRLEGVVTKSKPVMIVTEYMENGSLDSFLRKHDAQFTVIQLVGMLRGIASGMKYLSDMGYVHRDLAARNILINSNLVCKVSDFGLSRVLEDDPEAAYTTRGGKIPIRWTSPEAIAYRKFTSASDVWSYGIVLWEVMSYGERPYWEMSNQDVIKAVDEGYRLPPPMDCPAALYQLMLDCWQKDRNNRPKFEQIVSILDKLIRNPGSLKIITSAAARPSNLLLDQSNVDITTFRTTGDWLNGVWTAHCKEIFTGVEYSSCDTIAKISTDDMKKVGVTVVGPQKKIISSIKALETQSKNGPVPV
Method: as §1

HIPK1 (Myak) = HIPK1 (Myak) (Homo sapiens, UniProt Q86Z02); conditions: for Inhibition at 1 µM (%): HIPK1 (Myak), ZLYTE, ATP Km app
Method: as §1

INSRR (IRR) = INSRR (IRR) (Homo sapiens, UniProt P14616); conditions: 1 h, 1 μM WEL028, 1 h preincubation
Method: as §1

KDR (VEGFR2) [1] = biological target: KDR (VEGFR2) (Homo sapiens, UniProt P35968)
Method: as §1

KDR (VEGFR2) [2] = conditions: IC50 on that kinase divided by IC50 on FES^S700C
Method: as §1

MAP3K11 (MLK3) = MAP3K11 (MLK3) (Homo sapiens, UniProt Q16584)
Method: as §1

PDK1 Direct = biological target: T2, PDK1 Direct (Homo sapiens, UniProt O15530)
T2 sequence (O15530 1-556): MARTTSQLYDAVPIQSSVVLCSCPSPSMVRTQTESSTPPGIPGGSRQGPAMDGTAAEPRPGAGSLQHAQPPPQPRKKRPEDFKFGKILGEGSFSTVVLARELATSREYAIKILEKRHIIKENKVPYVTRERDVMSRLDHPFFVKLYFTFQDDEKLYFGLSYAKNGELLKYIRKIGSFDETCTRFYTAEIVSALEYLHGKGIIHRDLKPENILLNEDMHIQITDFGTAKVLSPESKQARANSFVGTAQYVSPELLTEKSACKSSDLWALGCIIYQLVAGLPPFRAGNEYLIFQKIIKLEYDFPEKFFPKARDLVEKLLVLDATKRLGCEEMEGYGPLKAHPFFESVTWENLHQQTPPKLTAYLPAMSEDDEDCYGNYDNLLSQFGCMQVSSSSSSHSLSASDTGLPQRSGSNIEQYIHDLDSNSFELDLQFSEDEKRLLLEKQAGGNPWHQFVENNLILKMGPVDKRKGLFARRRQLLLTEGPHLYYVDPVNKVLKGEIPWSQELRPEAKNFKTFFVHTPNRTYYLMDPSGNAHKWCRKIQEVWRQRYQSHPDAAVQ
Method: as §1

PRKX = PRKX (Homo sapiens, UniProt P51817)
Method: as §1

RPS6KA4 (MSK2) = RPS6KA4 (MSK2) (Homo sapiens, UniProt O75676)
Method: as §1

[3] = 1 h, 1 μM WEL028, 1 h preincubation
[4] = 1 µM, ZLYTE, ATP Km app, listed as WEL028, 1 µM

Sequence of CDK13/cyclin K (Q14004 whole entry): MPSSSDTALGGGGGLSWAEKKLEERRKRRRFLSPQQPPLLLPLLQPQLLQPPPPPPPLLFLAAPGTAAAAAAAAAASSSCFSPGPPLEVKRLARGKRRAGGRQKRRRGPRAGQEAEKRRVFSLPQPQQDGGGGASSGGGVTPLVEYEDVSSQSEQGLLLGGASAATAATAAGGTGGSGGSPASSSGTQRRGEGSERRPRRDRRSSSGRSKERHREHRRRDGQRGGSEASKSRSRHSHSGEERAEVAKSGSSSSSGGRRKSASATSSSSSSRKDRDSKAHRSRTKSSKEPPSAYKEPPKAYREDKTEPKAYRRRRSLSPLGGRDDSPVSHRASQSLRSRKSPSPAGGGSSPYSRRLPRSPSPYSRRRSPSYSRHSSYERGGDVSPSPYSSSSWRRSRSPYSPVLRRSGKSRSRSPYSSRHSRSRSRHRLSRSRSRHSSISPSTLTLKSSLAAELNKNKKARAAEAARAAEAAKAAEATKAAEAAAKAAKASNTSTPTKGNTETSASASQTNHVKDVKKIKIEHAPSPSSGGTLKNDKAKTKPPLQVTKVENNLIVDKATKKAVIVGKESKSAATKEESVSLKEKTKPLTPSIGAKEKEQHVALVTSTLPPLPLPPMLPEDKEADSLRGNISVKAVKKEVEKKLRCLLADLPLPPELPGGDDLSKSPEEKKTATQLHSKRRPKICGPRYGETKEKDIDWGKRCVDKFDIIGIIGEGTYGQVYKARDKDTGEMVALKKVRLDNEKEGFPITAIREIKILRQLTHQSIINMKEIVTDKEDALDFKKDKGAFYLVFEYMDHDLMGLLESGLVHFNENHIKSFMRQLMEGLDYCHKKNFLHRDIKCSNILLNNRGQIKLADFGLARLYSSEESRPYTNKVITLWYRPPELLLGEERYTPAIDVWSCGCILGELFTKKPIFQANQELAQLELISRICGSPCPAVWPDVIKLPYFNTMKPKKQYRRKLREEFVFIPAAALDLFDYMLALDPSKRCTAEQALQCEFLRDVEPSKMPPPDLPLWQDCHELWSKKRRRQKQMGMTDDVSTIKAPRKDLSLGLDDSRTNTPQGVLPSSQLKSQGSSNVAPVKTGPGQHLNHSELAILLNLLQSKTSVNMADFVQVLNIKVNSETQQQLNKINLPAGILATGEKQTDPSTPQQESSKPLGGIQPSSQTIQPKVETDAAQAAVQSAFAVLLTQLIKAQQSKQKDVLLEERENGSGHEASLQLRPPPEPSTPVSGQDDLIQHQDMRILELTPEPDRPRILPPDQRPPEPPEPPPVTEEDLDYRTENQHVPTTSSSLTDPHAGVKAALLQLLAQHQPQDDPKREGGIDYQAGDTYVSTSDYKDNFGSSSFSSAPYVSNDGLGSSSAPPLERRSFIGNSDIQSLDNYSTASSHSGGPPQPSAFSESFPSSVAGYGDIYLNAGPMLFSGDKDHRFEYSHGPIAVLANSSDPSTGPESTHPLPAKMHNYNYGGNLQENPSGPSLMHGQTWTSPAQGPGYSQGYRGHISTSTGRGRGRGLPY
Sequence of CDK13/cyclin K (O75909 whole entry partner): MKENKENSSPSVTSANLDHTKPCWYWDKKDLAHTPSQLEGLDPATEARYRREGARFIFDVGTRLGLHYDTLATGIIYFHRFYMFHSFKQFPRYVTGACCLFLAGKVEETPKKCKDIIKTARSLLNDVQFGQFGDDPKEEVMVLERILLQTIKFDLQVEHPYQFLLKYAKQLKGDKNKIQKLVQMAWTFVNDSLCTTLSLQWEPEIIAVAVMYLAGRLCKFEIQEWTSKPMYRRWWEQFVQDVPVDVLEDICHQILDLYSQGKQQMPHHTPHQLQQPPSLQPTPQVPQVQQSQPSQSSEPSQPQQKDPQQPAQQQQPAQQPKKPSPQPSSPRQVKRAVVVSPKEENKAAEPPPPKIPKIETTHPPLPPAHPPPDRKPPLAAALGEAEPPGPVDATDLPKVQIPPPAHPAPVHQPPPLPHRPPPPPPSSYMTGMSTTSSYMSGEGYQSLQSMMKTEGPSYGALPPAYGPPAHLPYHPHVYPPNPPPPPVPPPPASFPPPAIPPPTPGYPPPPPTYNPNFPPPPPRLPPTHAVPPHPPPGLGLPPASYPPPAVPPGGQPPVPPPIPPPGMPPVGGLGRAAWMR
Sequence of HIPK1 (Myak) (Q86Z02 whole entry): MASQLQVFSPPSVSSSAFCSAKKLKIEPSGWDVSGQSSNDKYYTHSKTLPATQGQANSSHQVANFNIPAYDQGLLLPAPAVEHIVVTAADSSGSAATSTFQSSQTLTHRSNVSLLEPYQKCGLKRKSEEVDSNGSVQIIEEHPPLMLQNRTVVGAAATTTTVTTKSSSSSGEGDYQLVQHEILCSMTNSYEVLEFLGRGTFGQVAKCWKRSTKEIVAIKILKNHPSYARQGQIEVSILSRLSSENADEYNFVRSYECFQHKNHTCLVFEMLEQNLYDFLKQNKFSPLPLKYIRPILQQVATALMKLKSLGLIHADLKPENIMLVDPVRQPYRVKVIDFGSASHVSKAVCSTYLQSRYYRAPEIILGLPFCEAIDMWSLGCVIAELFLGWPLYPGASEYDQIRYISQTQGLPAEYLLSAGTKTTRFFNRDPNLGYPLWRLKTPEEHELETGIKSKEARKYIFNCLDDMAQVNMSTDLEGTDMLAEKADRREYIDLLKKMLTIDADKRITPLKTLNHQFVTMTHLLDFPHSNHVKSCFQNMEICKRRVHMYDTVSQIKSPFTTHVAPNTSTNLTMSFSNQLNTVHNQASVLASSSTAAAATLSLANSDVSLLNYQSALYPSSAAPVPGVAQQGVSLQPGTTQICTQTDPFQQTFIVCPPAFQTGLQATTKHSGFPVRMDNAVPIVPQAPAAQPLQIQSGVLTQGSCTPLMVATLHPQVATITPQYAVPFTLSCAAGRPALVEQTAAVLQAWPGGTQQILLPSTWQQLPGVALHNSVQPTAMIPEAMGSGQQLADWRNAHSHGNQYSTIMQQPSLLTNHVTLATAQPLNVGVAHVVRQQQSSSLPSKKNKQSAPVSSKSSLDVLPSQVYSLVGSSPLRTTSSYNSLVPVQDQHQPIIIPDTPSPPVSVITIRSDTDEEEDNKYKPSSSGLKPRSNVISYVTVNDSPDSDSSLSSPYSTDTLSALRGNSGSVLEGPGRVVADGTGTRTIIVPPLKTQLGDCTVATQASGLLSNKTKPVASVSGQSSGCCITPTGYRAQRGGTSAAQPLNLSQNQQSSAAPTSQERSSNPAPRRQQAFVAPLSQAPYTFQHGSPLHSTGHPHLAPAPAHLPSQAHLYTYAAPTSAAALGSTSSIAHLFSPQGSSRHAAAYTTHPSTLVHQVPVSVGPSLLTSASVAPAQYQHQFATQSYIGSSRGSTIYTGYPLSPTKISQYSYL
Sequence of CAMK2A (CaMKII alpha) (Q9UQM7 whole entry): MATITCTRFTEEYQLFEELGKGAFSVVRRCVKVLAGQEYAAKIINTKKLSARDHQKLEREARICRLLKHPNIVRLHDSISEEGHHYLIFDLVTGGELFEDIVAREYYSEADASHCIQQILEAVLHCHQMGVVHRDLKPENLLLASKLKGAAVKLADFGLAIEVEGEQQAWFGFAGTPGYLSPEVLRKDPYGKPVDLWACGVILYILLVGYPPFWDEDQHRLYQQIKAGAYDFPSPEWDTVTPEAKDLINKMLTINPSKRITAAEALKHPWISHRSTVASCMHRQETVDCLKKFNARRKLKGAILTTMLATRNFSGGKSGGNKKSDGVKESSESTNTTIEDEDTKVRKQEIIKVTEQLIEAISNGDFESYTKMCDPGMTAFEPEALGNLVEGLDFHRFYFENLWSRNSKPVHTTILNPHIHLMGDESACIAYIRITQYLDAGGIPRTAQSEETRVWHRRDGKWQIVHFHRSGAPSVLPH
Sequence of RPS6KA4 (MSK2) (O75676 whole entry): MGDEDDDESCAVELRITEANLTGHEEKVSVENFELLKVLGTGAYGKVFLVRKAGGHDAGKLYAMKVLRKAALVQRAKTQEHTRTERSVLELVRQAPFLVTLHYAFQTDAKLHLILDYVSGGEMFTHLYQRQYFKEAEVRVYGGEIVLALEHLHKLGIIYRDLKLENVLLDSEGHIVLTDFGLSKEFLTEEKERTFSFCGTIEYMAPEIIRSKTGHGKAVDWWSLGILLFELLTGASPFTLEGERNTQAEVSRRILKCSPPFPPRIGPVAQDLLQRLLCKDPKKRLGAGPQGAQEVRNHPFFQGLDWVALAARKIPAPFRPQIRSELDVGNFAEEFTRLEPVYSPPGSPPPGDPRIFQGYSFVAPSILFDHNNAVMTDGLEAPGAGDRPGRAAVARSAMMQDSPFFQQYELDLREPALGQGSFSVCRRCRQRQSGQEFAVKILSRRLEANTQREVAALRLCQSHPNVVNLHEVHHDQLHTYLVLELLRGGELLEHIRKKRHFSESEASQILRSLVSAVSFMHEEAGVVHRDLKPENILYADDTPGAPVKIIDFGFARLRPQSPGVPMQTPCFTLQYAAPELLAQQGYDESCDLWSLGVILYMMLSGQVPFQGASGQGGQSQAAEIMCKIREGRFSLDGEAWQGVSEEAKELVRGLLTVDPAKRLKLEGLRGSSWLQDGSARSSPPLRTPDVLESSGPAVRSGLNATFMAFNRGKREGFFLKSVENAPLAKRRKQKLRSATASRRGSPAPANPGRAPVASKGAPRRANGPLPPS
Sequence of PRKX (P51817 whole entry): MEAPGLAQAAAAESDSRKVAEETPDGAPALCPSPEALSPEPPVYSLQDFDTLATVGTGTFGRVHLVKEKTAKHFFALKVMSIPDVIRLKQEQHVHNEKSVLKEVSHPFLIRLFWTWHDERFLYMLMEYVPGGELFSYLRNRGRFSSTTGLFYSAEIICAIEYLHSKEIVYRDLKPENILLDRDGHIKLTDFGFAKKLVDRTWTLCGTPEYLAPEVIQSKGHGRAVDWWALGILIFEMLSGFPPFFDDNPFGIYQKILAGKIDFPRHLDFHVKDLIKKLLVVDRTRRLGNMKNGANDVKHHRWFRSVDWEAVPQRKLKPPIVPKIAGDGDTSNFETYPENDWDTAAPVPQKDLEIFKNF

## C#CCOc1ccc(Nc2ncc(Cl)c(Nc3ccccc3NC(=O)C=C)n2)c(OC)c1 [Compound 6]
CDK13/cyclin K; 1 μM WEL028, 1 h preincubation
  Inhibition (%): -3%
CDK13/cyclin K; CDK13/cyclin K, 1 µM, LanthaScreen Binding, listed as WEL028, 1 µM
  Inhibition at 1 µM (%): -1% and -5%
ACVRL1 (ALK1); [3]
  inhibition at 1 µM: 6%
ACVRL1 (ALK1); ACVRL1 (ALK1), 1 µM, LanthaScreen Binding
  Inhibition at 1 µM (%): 12%
CAMK2A (CaMKII alpha); [3]
  inhibition at 1 µM: -6%
CAMK2A (CaMKII alpha); CAMK2A (CaMKII alpha), 1 µM, ZLYTE, ATP Km app, listed as WEL028, 1 µM
  Inhibition at 1 µM (%): -7% and -5%
EPHA3; [3]
  inhibition at 1 µM: 9%
EPHA3; EPHA3, 1 µM, LanthaScreen Binding, listed as WEL028, 1 µM
  Inhibition at 1 µM (%): 8%
EPHA3; read-out: Inhibition at 1 µM (%), EPHA3, 1 µM, LanthaScreen Binding
  inhibition at 1 µM: 10%
HIPK1 (Myak); [3]
  inhibition at 1 µM: -4%
HIPK1 (Myak)
  Inhibition at 1 µM (%): -2%
HIPK1 (Myak); listed as WEL028, 1 µM
  Inhibition at 1 µM (%): -6%
INSRR (IRR)
  inhibition at 1 µM: 9%
KDR (VEGFR2) [1]
  IC50: 631 nM
KDR (VEGFR2) [1]; [3]
  inhibition at 1 µM: 67%
KDR (VEGFR2) [1]; 1 h, log[inhibitor] (M) -5.00, ZLYTE, ATP Km app
  inhibition at 10 µM: 101%
KDR (VEGFR2) [1]; 1 h, log[inhibitor] (M) -5.48, ZLYTE, ATP Km app
  inhibition at 3.31 µM: 99%
KDR (VEGFR2) [1]; 1 h, log[inhibitor] (M) -5.95, ZLYTE, ATP Km app
  inhibition at 1.12 µM: 70%
KDR (VEGFR2) [1]; 1 h, log[inhibitor] (M) -6.43, ZLYTE, ATP Km app
  inhibition at 0.372 µM: 37%
KDR (VEGFR2) [1]; 1 h, log[inhibitor] (M) -6.91, ZLYTE, ATP Km app
  inhibition at 0.123 µM: 26%
KDR (VEGFR2) [1]; 1 h, log[inhibitor] (M) -7.39, ZLYTE, ATP Km app
  inhibition at 0.04074 µM: 16%
KDR (VEGFR2) [1]; 1 h, log[inhibitor] (M) -8.82, ZLYTE, ATP Km app
  inhibition at 0.00151 µM: 17%
KDR (VEGFR2) [1]; 1 h, log[inhibitor] (M) -9.31, ZLYTE, ATP Km app
  inhibition at 0.00049 µM: 17%
KDR (VEGFR2) [1]; KDR (VEGFR2), 1 µM, ZLYTE, ATP Km app, listed as WEL028, 1 µM
  Inhibition at 1 µM (%): 65%
KDR (VEGFR2) [1]; read-out: Inhibition at 1 µM (%), KDR (VEGFR2), 1 µM, ZLYTE, ATP Km app
  inhibition at 1 µM: 69%
KDR (VEGFR2) [2]
  Apparent fold selectivity: 153 fold
MAP3K11 (MLK3); MAP3K11 (MLK3), LanthaScreen Binding, listed as WEL028, 1 µM
  Inhibition at 1 µM (%): 6%
MAP3K11 (MLK3); read-out: Inhibition at 1 µM (%), MAP3K11 (MLK3), LanthaScreen Binding
  inhibition at 1 µM: 7%
PDK1 Direct; [3]
  inhibition at 1 µM: 5%
PDK1 Direct; PDK1 Direct, 1 µM, ZLYTE, ATP Km app, listed as WEL028, 1 µM
  Inhibition at 1 µM (%): 3%
PDK1 Direct; read-out: Inhibition at 1 µM (%), PDK1 Direct, 1 µM, ZLYTE, ATP Km app
  inhibition at 1 µM: 6%
PRKX; [4]
  Inhibition at 1 µM (%): -6% and 0%
PRKX; [3]
  inhibition at 1 µM: -3%
RPS6KA4 (MSK2); [4]
  Inhibition at 1 µM (%): -4% and 6%
RPS6KA4 (MSK2); [3]
  inhibition at 1 µM: 1%
